In PubChem BioAssay AID1918999 (Molecular Pharmacology Branch, DTP, NCI, 2023):

Tested on: 556581-035-R-J1-PDC complex spheroid growth
Test: Anticancer human tumor 556581-035-R-J1-PDC patient-derived ovarian carcinoma cell line growth inhibition [AhR]
Details: for IC50: curve of first compound; for viability, T/C: stronger effect = lower value; active means viability on the fitted dose curve at most 10% of control; inactive means the rest
How it was run: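 Agents were dosed in half-log steps down from roughly clinical Cmax, or from 10 microM where Cmax was unknown, alone and with AhR antagonists. Read-out: percent test/control growth of tumor spheroids containing HUVEC and MSC stromal cells.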

[1] = second compound 0.1 µM, first compound 0.0316 µM
[2] = second compound 0.1 µM, first compound 0.1 µM
[3] = second compound 0.316 µM, first compound 0.0316 µM
[4] = second compound 0.316 µM, first compound 0.1 µM
[5] = second compound 1 µM, first compound 0.0316 µM
[6] = second compound 1 µM, first compound 0.1 µM
[7] = second compound 3.16 µM, first compound 0.0316 µM
[8] = second compound 3.16 µM, first compound 0.1 µM
[9] = second compound 10 µM, first compound 0.0316 µM
[10] = second compound 10 µM, first compound 0.1 µM
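Wherever viability, T/C is given: compound exposure lasted 7 days; 100% = DMSO vehicle control growth.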

CC1(C)CCC(CN2CCN(c3ccc(C(=O)NS(=O)(=O)c4ccc(NCC5CCOCC5)c([N+](=O)[O-])c4)c(Oc4cnc5[nH]ccc5c4)c3)CC2)=C(c2ccc(Cl)cc2)C1 + Cc1cncc(-c2nc(NCCc3c[nH]c4ccccc34)c3ncn(C(C)C)c3n2)c1
> 10 µM: IC50 (second compound 0.1 µM) | IC50 (second compound 0.316 µM) | IC50 (second compound 1 µM) | IC50 (second compound 3.16 µM) | IC50 (second compound 10 µM)
inactive: viability, T/C [1] 104% | viability, T/C [2] 98.6% | viability, T/C (second compound 0.1 µM, first compound 0.316 µM) 102% | viability, T/C (second compound 0.1 µM, first compound 1 µM) 91% | viability, T/C (second compound 0.1 µM, first compound 3.16 µM) 93.1% | viability, T/C (second compound 0.1 µM, first compound 10 µM) 77.5% | viability, T/C [3] 95.6% | viability, T/C [4] 98.2% | viability, T/C (second compound 0.316 µM, first compound 0.316 µM) 102% | viability, T/C (second compound 0.316 µM, first compound 1 µM) 95.1% | viability, T/C (second compound 0.316 µM, first compound 3.16 µM) 96.3% | viability, T/C (second compound 0.316 µM, first compound 10 µM) 72.3% | viability, T/C [5] 105% | viability, T/C [6] 99.9% | viability, T/C (second compound 1 µM, first compound 0.316 µM) 101% | viability, T/C (second compound 1 µM, first compound 1 µM) 91.5% | viability, T/C (second compound 1 µM, first compound 3.16 µM) 85.6% | viability, T/C (second compound 1 µM, first compound 10 µM) 76.9% | viability, T/C [7] 95.2% | viability, T/C [8] 101% | viability, T/C (second compound 3.16 µM, first compound 0.316 µM) 91% | viability, T/C (second compound 3.16 µM, first compound 1 µM) 87.8% | viability, T/C (second compound 3.16 µM, first compound 3.16 µM) 80.6% | viability, T/C (second compound 3.16 µM, first compound 10 µM) 67.8% | viability, T/C [9] 88.9% | viability, T/C [10] 80.6% | viability, T/C (second compound 10 µM, first compound 0.316 µM) 87.6% | viability, T/C (second compound 10 µM, first compound 1 µM) 83.7% | viability, T/C (second compound 10 µM, first compound 3.16 µM) 81.2% | viability, T/C (second compound 10 µM, first compound 10 µM) 67.1%

CCN(c1cc(-c2ccc(CN3CCOCC3)cc2)cc(C(=O)NCc2c(C)cc(C)[nH]c2=O)c1C)C1CCOCC1 + Cc1cncc(-c2nc(NCCc3c[nH]c4ccccc34)c3ncn(C(C)C)c3n2)c1
2.23 µM: IC50 (second compound 10 µM)
inactive: viability, T/C (second compound 0.1 µM, first compound 0.00949 µM) 97.7% | viability, T/C (second compound 0.1 µM, first compound 0.03 µM) 109% | viability, T/C (second compound 0.1 µM, first compound 0.0949 µM) 96.2% | viability, T/C (second compound 0.1 µM, first compound 0.3 µM) 102% | viability, T/C (second compound 0.1 µM, first compound 0.949 µM) 102% | viability, T/C (second compound 0.1 µM, first compound 3 µM) 100% | viability, T/C (second compound 0.316 µM, first compound 0.00949 µM) 98% | viability, T/C (second compound 0.316 µM, first compound 0.03 µM) 96.2% | viability, T/C (second compound 0.316 µM, first compound 0.0949 µM) 102% | viability, T/C (second compound 0.316 µM, first compound 0.3 µM) 101% | viability, T/C (second compound 0.316 µM, first compound 0.949 µM) 99.5% | viability, T/C (second compound 0.316 µM, first compound 3 µM) 104% | viability, T/C (second compound 1 µM, first compound 0.00949 µM) 104% | viability, T/C (second compound 1 µM, first compound 0.03 µM) 118% | viability, T/C (second compound 1 µM, first compound 0.0949 µM) 112% | viability, T/C (second compound 1 µM, first compound 0.3 µM) 94.9% | viability, T/C (second compound 1 µM, first compound 0.949 µM) 88.2% | viability, T/C (second compound 1 µM, first compound 3 µM) 92.3% | viability, T/C (second compound 3.16 µM, first compound 0.00949 µM) 86.4% | viability, T/C (second compound 3.16 µM, first compound 0.03 µM) 99.3% | viability, T/C (second compound 3.16 µM, first compound 0.0949 µM) 101% | viability, T/C (second compound 3.16 µM, first compound 0.3 µM) 88.6% | viability, T/C (second compound 3.16 µM, first compound 0.949 µM) 92.1% | viability, T/C (second compound 3.16 µM, first compound 3 µM) 92.2% | viability, T/C (second compound 10 µM, first compound 0.00949 µM) 84.4% | viability, T/C (second compound 10 µM, first compound 0.03 µM) 83.8% | viability, T/C (second compound 10 µM, first compound 0.0949 µM) 83.3% | viability, T/C (second compound 10 µM, first compound 0.3 µM) 69.6% | viability, T/C (second compound 10 µM, first compound 0.949 µM) 66.5% | viability, T/C (second compound 10 µM, first compound 3 µM) 44.3%
> 3 µM: IC50 (second compound 0.1 µM) | IC50 (second compound 0.316 µM) | IC50 (second compound 1 µM) | IC50 (second compound 3.16 µM)

Cn1ncnc1C1c2n[nH]c(=O)c3cc(F)cc(c23)NC1c1ccc(F)cc1 (stereo not given) + Cc1cncc(-c2nc(NCCc3c[nH]c4ccccc34)c3ncn(C(C)C)c3n2)c1
inactive: viability, T/C (second compound 0.1 µM, first compound 0.000316 µM) 105% | viability, T/C (second compound 0.1 µM, first compound 0.001 µM) 102% | viability, T/C (second compound 0.1 µM, first compound 0.00316 µM) 95.1% | viability, T/C (second compound 0.1 µM, first compound 0.01 µM) 110% | viability, T/C [1] 92.4% | viability, T/C [2] 90.3% | viability, T/C (second compound 0.316 µM, first compound 0.000316 µM) 99.2% | viability, T/C (second compound 0.316 µM, first compound 0.001 µM) 99.3% | viability, T/C (second compound 0.316 µM, first compound 0.00316 µM) 101% | viability, T/C (second compound 0.316 µM, first compound 0.01 µM) 89.8% | viability, T/C [3] 86.9% | viability, T/C [4] 86.6% | viability, T/C (second compound 1 µM, first compound 0.000316 µM) 96.1% | viability, T/C (second compound 1 µM, first compound 0.001 µM) 104% | viability, T/C (second compound 1 µM, first compound 0.00316 µM) 102% | viability, T/C (second compound 1 µM, first compound 0.01 µM) 102% | viability, T/C [5] 103% | viability, T/C [6] 98.6% | viability, T/C (second compound 3.16 µM, first compound 0.000316 µM) 90.6% | viability, T/C (second compound 3.16 µM, first compound 0.001 µM) 107% | viability, T/C (second compound 3.16 µM, first compound 0.00316 µM) 97.7% | viability, T/C (second compound 3.16 µM, first compound 0.01 µM) 91.8% | viability, T/C [7] 85.2% | viability, T/C [8] 101% | viability, T/C (second compound 10 µM, first compound 0.000316 µM) 87.2% | viability, T/C (second compound 10 µM, first compound 0.001 µM) 83.4% | viability, T/C (second compound 10 µM, first compound 0.00316 µM) 92% | viability, T/C (second compound 10 µM, first compound 0.01 µM) 85.7% | viability, T/C [9] 89.9% | viability, T/C [10] 79.1%
> 0.1 µM: IC50 (second compound 0.1 µM) | IC50 (second compound 0.316 µM) | IC50 (second compound 1 µM) | IC50 (second compound 3.16 µM) | IC50 (second compound 10 µM)
